US6015809A (priority 1999, dated 2000)
In brackets after ≈: the same amount, converted by molar mass.

Experiments:
Assay type in all cases: cell-based
[1] = test system: MDA-MB-435 (breast) tumor cells; test: Antineoplastic activity in vitro, tumor cell growth (sulforhrodamine B); conditions: MDA-MB-435, 48 hours
Source text: (§1) Antineoplastic activity for the compounds of this invention was established by evaluating the antineoplastic activity of a representative compound of this invention (Compound I) against six tumor cell lines in vitro. Briefly, tumor cells from six cell lines were placed in wells of a 96 well microtiter plate. The following tumor cell lines were used: A2780S (ovarian), A2780DDP (ovarian--resistant to cis-platin), A431 (vulva epidermoid origin), SW620 (colon), SKBR3 (breast), and MDA-MB-435 (breast). The tumors cells were grown in the presence of serial dilutions of the compound to be evaluated for 48 hours, and cell growth determined using a colorimetric procedure (sulforhrodamine B). The inhibition of growth was calculated compared to the number of cells at the time of test compound addition. Results are expressed as an IC50 (μg/ml). […] In particular, the compounds of this invention are useful against solid tumors, including sarcomas and carcinomas; and more particularly against astrocytomas, prostate cancer, breast cancer, colon cancer, small cell lung cancer, and ovarian cancer; and adult T-cell leukemia/lymphoma.

[2] = test system: SKBR3 (breast) tumor cells; test: as above; conditions: SKBR3, 48 hours
Source text: as §1

[3] = test system: SW620 (colon) tumor cells; test: as above; conditions: SW620, 48 hours
Source text: as §1

[4] = test system: A2780S (ovarian) tumor cells; test: as above; conditions: 48 hours
Source text: as §1

[5] = test system: A2780DDP (ovarian--resistant to cis-platin) tumor cells; test: as above; conditions: 48 hours
Source text: as §1

[6] = test system: A431 (vulva epidermoid origin) tumor cells; test: as above; conditions: A431, 48 hours
Source text: as §1

Aspergillus niger = test: Antifungal activity, MIC microdilution; conditions: strain S-430; RPMI 1640, 35° C., 24-48 hours
Method: (§2) Briefly the following procedure was used to evaluate such activity. A 96 U-bottom microtiter plate was filled (50 μl/well) with RPMI 1640. The compounds to be evaluated were placed in appropriate wells, and serial diluted in successive wells to provide 11 dilutions. The concentrations ranged from 64 through 0.06 μg/ml. An adjusted inoculum of fungi (50 μl) was added to each well and the plates were incubated at 35° C. for 24-48 hours.

Aspergillus flavus = test: Antifungal activity, MIC microdilution; conditions: strain ATCC 12963; RPMI 1640, 35° C., 24-48 hours
Method: as §2

Candida lusitaniae = test: Antifungal activity, MIC microdilution; conditions: strain 94-3; RPMI 1640, 35° C., 24-48 hours
Method: as §2

Candida albicans = test: Antifungal activity, MIC microdilution; conditions: RPMI 1640, 35° C., 24-48 hours
Method: as §2

Candida rugosa = test: Antifungal activity, MIC microdilution; conditions: strain 94-10; RPMI 1640, 35° C., 24-48 hours
Method: as §2

Candida pseudotropicalis = test: Antifungal activity, MIC microdilution; conditions: strain ATCC 28838; RPMI 1640, 35° C., 24-48 hours
Method: as §2

Saccharomyces cerevisiae = test: Antifungal activity, MIC microdilution; conditions: strain ATCC 2601; RPMI 1640, 35° C., 24-48 hours
Method: as §2

Candida zeylanoided = test: Antifungal activity, MIC microdilution; conditions: strain 94-15; RPMI 1640, 35° C., 24-48 hours
Method: as §2

Candida krussii = test: Antifungal activity, MIC microdilution; conditions: strain 94-2; RPMI 1640, 35° C., 24-48 hours
Method: as §2, with “Antifungal activity for the compounds of this invention was established by evaluating a representative compound of this invention (Compound I) against several strains of fungi. Briefly” for “Briefly”

Candida glabrata = test: Antifungal activity, MIC microdilution; conditions: strain ATCC 90030; RPMI 1640, 35° C., 24-48 hours
Method: as §2, with “Antifungal activity for the compounds of this invention was established by evaluating a representative compound of this invention (Compound I) against several strains of fungi. Briefly” for “Briefly”

[7] = test system: Filobasidiella neoformans; test: Antifungal activity, MIC microdilution; conditions: strain ATCC 7472; RPMI 1640, 35° C., 24-48 hours
Method: as §2, with “Antifungal activity for the compounds of this invention was established by evaluating a representative compound of this invention (Compound I) against several strains of fungi. Briefly” for “Briefly”

Candida tropicalis = test: Antifungal activity, MIC microdilution; conditions: RPMI 1640, 35° C., 24-48 hours
Method: as §2, with “Antifungal activity for the compounds of this invention was established by evaluating a representative compound of this invention (Compound I) against several strains of fungi. Briefly” for “Briefly”

Aspergillus fumigatus = test: Antifungal activity, MIC microdilution; conditions: strain ATCC 26933; RPMI 1640, 35° C., 24-48 hours
Method: as §2, with “Antifungal activity for the compounds of this invention was established by evaluating a representative compound of this invention (Compound I) against several strains of fungi. Briefly” for “Briefly”

Cryptococcus neoformans = test: Antifungal activity, MIC microdilution; conditions: strain ATCC 90112; RPMI 1640, 35° C., 24-48 hours
Method: as §2, with “Antifungal activity for the compounds of this invention was established by evaluating a representative compound of this invention (Compound I) against several strains of fungi. Briefly” for “Briefly”

Candida parapsilosis = test: Antifungal activity, MIC microdilution; conditions: RPMI 1640, 35° C., 24-48 hours
Method: as §2, with “Antifungal activity for the compounds of this invention was established by evaluating a representative compound of this invention (Compound I) against several strains of fungi. Briefly” for “Briefly”

## CO[C@H]1C[C@@H]2CC[C@@H](C)[C@@](O)(O2)[C@]2(O)C(=O)N3[C@@H](CCC[C@@H]32)C(=O)O[C@H]([C@H](C)C[C@@H]2CC[C@@H](O)[C@H](OC)C2)CC(=O)[C@H](C)/C=C(\C)[C@@H](O)[C@@H](OC)C(=O)[C@H](C)C[C@H](C)/C=C/C=C/C=C/1C [Compound I, (1S,2R,3R,6S,8S,9E,11E,13E,15S,17R,19R,20R,21E,23R,26S,29S,33R)-1,2,30-Trihydroxy-26-[(1R)-2-[(1S,3R,4R)4-hydroxy-3-methoxycyclohexyl]-1-methylethyl]-8,19-dimethoxy-3,9,15,17,21,23-hexamethyl-27,36-dioxa-35-azatetracyclo[27.4.2.1.[2,6].0[33,35]]hexatriaconta-9,11,13,21-tetraene-18,24,28,34-tetrone]
[1]
  IC50 (inhibition of growth): 27.28 µg/mL
[2]
  IC50 (inhibition of growth): 7.029 µg/mL
[3]
  IC50 (inhibition of growth): 24.84 µg/mL
[4]
  IC50 (inhibition of growth): 8.756 µg/mL
[5]
  IC50 (inhibition of growth): 6.51 µg/mL
[6]
  IC50 (inhibition of growth): 20.46 µg/mL
Aspergillus niger
  MIC: ≥ 64 µg/mL
Aspergillus flavus
  MIC: ≥ 64 µg/mL
Candida lusitaniae
  MIC: 4 µg/mL (≈ 4.38 µM)
Candida albicans; strain 94-1
  MIC: 16 µg/mL (≈ 17.5 µM)
Candida albicans; strain 1063
  MIC: 16 µg/mL (≈ 17.5 µM)
Candida albicans; strain 1117
  MIC: 32 µg/mL (≈ 35 µM)
Candida albicans; strain ATCC 90028
  MIC: 16 µg/mL (≈ 17.5 µM)
Candida albicans; strain C-83
  MIC: ≥ 64 µg/mL
Candida rugosa
  MIC: 16 µg/mL (≈ 17.5 µM)
Candida pseudotropicalis
  MIC: 4 µg/mL (≈ 4.38 µM)
Saccharomyces cerevisiae
  MIC: 8 µg/mL (≈ 8.75 µM)
Candida zeylanoided
  MIC: 8 µg/mL (≈ 8.75 µM)
Candida krussii
  MIC: ≥ 64 µg/mL
Candida glabrata
  MIC: 8 µg/mL (≈ 8.75 µM)
[7]
  MIC: ≥ 64 µg/mL
Candida tropicalis; strain 94-13
  MIC: 16 µg/mL (≈ 17.5 µM)
Candida tropicalis; strain 94-14
  MIC: 8 µg/mL (≈ 8.75 µM)
Aspergillus fumigatus
  MIC: ≥ 64 µg/mL
Cryptococcus neoformans
  MIC: 8 µg/mL (≈ 8.75 µM)
Candida parapsilosis; strain 94-8
  MIC: 8 µg/mL (≈ 8.75 µM)
Candida parapsilosis; strain 94-9
  MIC: 8 µg/mL (≈ 8.75 µM)
Candida parapsilosis; strain ATCC 90018
  MIC: 8 µg/mL (≈ 8.75 µM)
